From US20240050426A1, “TREATING VIRAL INFECTION WITH NMD INHIBITORS” (The Cleveland Clinic Foundation, priority 2021, published 2024)

Experiments:
BJAB cells = assay: Cytotoxicity assessment, flow cytometry with 7-AAD and FITC-Annexin V; format: cell-based; details: virus-negative BJAB cells, NMDI-1 between 5 and 50 μM, 48 h
Protocol: (§1) FIG. 11. Cytotoxicity assessment of NMDI-1 treatment. (A, B) Flow cytometry analysis of virus-negative Burkitt lymphoma BJAB (A) or AGS (B) cells treated with 5 to 100 μM NMDI-1 or DMSO (‘0 μM’ NMDI-1) for 48 h and stained with 7-AAD and FITC-Annexin V. Data are presented as mean percentage of live (orange, Annexin V^−/7-AAD^−), apoptotic (blue, […]), and necrotic (red, Annexin V^+/7-AAD^+) cells for three biological replicates. 1 μM staurosporine treatment served as positive control for apoptosis/necrosis induction.
(§2) AGS-EBV and HEK293T.rKSHV219 cells were seeded into 12-well plates and transfected with UPF1-specific or non-targeting control siRNAs for 24 to 120 h as indicated. As a positive control for reactivation, cells were treated with 2.5 mM NaB for 24 h. For microscopy, cells were incubated with Hoechst nucleic acid stain (1:2000, Invitrogen) in PBS for 5 min at RT, after which DAPI, as well as GFP or RFP were imaged using a fluorescence microscope (Omano). For flow cytometry analysis of GFP and RFP expression, cells were fixed in 4% paraformaldehyde in PBS and analyzed on an LSRFortessa (BD Biosciences). […] Data were analyzed using the Flowjo software (BD Biosciences).

AGS cells = assay: as above; format: cell-based, human; details: NMDI-1 between 5 and 50 μM, 48 h
Protocol: as §1, §2

KSHV = KSHV reactivation: qRT-PCR of KSHV lytic transcripts after NMDI-1 treatment; format: cell-based; details: 25 μM NMDI-1, 24 to 120 h
Protocol: (§3) FIG. 4. Small-molecule NMD inhibitor NMDI-1 is a potent inducer of EBV and KSHV reactivation. (A-C) qRT-PCR analysis of EBV BZLF1, BRLF1, BMRF1, BLLF1b, and/or BcLF1 transcripts in EBV^+ AKBM (A), AGS-EBV (B), or LCL (C) cells treated with 25 μM NMDI-1 for 12 to 120 h, presented as fold expression relative to Mock-treated samples. (D-G) qRT-PCR analysis of Orf26, Orf50, Orf57, or Orf74 transcripts in KSHV^+ iSLK.rKSHV219 (D), HEK293T.rKSHV219 (E), BC3 (F), and BCBL1 (G) cells treated with 25 μM NMDI-1 for 24 to 120 h, presented as fold expression relative to Mock-treated samples. Data are representative of at least two (A, C) or three (B, D, E, F, G) independent experiments and presented as mean±SD of three biological replicates; ns, p>0.05, * p≤0.05, ** p≤0.01, *** p≤0.001.
(§4) Total RNA was extracted from cells using the E.Z.N.A. HP Total RNA Isolation Kit (OMEGA Bio-Tek) according to the manufacturer's instructions. Reverse transcription and qRT—PCR were performed using equal amounts (50-500 ng) of the purified RNA and the SuperScript III Platinum One-Step qRT-PCR kit with ROX (Invitrogen) on a 7500 Fast Real-Time PCR Machine (Applied Biosystems). Premixed master mixes of TaqMan primers and probes for the detection of human transcripts were purchased from Applied Biosystems (18S) or IDT (GAPDH, UPF1, UPF2, UPF3a, UPF3b, SMG1, SMG5, SMG6, SMG7, STAU1, STAU2, GADD45B, PDRG1, RPL32, HPRT1, MAP3K14). […] Abundance of target genes was calculated by normalizing for cellular 18S or GAPDH using the Comparative CT (ΔΔCt) method. […]

[1] = concentrations below those used in this study (25 μM); cited from earlier work
EBV = EBV reactivation: qRT-PCR of EBV lytic gene expression after NMDI-1 treatment; format: cell-based; details: 25 μM NMDI-1, qRT-PCR, relative to Mock
Protocol: as §3, §4

[2] = system: EBV transcripts in AGS-EBV cells; assay: qRT-PCR of EBV transcript abundance in TPA-treated AGS-EBV cells with or without NMDI-1; format: cell-based; details: 5 ng/mL TPA, 25 μM NMDI-1, 24 h
Excerpt: FIG. 3. NMD controls the abundance of the polycistronic EBV transactivator transcripts and Rta protein expression. (A) Schematic of the EBV transactivator locus and the three transcripts expressed from this locus. Dashed lines mark spliced introns; CDS, coding sequence; Rp, EBV BRLF1 promoter; Zp, EBV BZLF1 promoter; pA, 3′-polyadenylation site; green bar, location of the Northern blotting probe used in F and I. (B) qRT-PCR analysis of BRLF1 transcripts in HEK293T cells transfected with 0, 20, 40, or 60 nM UPF1-targeting siRNA for 24 h, followed by transfection of a plasmid encoding the complete EBV transactivator locus (left panel, orange) or the BRLF1 coding sequence (CDS) only (right panel, blue), together with pcDNA3-nlsGFP (internal control) for 48 h. Data was normalized to GFP transcript levels to control for differences in transfection efficiency and presented as fold abundance relative to cells without si.UPF1 (−). (C) qRT-PCR analysis of BZLF1 transcripts in HEK293T cells transfected with increasing amounts of si.UPF1 for 24 has in (B), followed by transfection for 48 h with a plasmid encoding the EBV BZLF1 locus (left panel, orange) or the BZLF1 CDS (right panel, blue), together with pcDNA3-nlsGFP (internal control). […] See 10E Fig for quantification of effects. […] See S6F Fig for quantification of effects. […] See S6G Fig for quantification of effects. […]

With `Cc1c2ccnc(Cl)c2c(C)c2c1[nH]c1ncccc12` [NMDI-1] the cell viability (BJAB cells) was “did not or only minimally affect cell viability”, the cell viability (AGS cells) was “did not or only minimally affect cell viability” and the “KSHV lytic transcripts Orf50, Orf26, Orf57 and/or Orf74” value (from here on “KSHV lytic transcripts Orf50, Orf26”) (KSHV; KSHV+ BC3 PEL cells) was “induced potent expression of the KSHV lytic transcripts”. For the same compound, the “KSHV lytic transcripts Orf50, Orf26” value (KSHV; KSHV+ BCBL1 PEL cells) was “induced potent expression of the KSHV lytic transcripts”, the “KSHV lytic transcripts Orf50, Orf26” value (KSHV; KSHV+ HEK293T.rKSHV219 cells) was “induced potent expression of the KSHV lytic transcripts” and the “KSHV lytic transcripts Orf50, Orf26” value (KSHV; KSHV+ iSLK.rKSHV219 cells) was “induced potent expression of the KSHV lytic transcripts”. The “toxicity in in vivo studies” value [1] was “without apparent toxicity”, the “EBV lytic gene expression” value (EBV; AGS-EBV cells) was “potent induction of lytic gene expression” and the “EBV lytic gene expression (BZLF1, BMRF1, BLLF1, BcLF1)” value (EBV; EBV+ AKBM cells) was “striking induction of EBV lytic gene expression”. The “EBV lytic gene expression” value (EBV; EBV-transformed LCL cells from healthy-donor primary B cells) was “potent induction of lytic gene expression”, the “BRLF1 transcript abundance compared to the mock-treated control” value [2] was “significant increase in BRLF1 transcript abundance” and the “levels of other EBV transcripts (BNRF1, BcLF1, BLLF1)” value [2] was “not significantly affected”.
